Like-named read-outs stand apart in the source and are kept apart here. One block for each compound: values may come before it.
Experiments:
SIK3 [1] = biological target: T1, SIK3 (Homo sapiens (Human), UniProt Q9Y2K2); assay: SIK3 kinase inhibition (IC50)
[2] = mouse, in vivo, po, 30 mg/kg
[3] = test system: MC38 murine tumour cell line; assay: TNF-sensitised cell viability assay (CellTiter-Glo); settings: read-out: MC38 IC50 (nM at 100 ng/mL TNF); 100 ng/mL TNF, 72 h
SIK2 = SIK2 (Homo sapiens (Human), UniProt Q9H0K1); assay: SIK2 kinase inhibition (IC50)
SRC (GST-HIS-tag) = SRC (GST-HIS-tag) (Homo sapiens (Human), UniProt P12931); assay type: biochemical
SIK3 [4] = biological target: T1, SIK3; settings: read-out: SIK3 IC50
[5] = Human hepatocyte stability; assay type: in vitro ADME; settings: human, hepatocytes; for half-life: read-out: Human hepatocyte stability, Half-life; for microsomal CLint: read-out: Human hepatocyte stability, Intrinsic clearance
[6] = Mouse hepatocyte stability; assay type: in vitro ADME; settings: hepatocytes; for microsomal CLint: read-out: Mouse hepatocyte stability, Intrinsic clearance
in vitro [7] = settings: human, microsomes
in vitro [8] = settings: mouse, microsomes
[9] = Human plasma-protein binding; settings: for recovery at 4 h: human, plasma
[10] = Murine plasma protein binding; settings: for recovery at 4 h: mouse, plasma
MDR1 (P-gp) = MDR1 (P-gp) (Homo sapiens (Human), UniProt P08183); assay: MDR1-MDCK effective efflux assay; settings: dog; for Papp: MDCK-MDR1; for efflux ratio: Table 5.1B
[11] = MDCK wild type permeability/efflux; settings: dog
[12] = Screening PK in mice after 30 mg/kg po; settings: for Cmax at 2 h / concentration at 6 h: mouse, plasma, po, 30 mg/kg
[13] = microsomes
[14] = microsomes; remark: listed apart in the source
[15] = test system: HDAC4 phosphorylation in PANC-1 cells; assay: HDAC4 phosphorylation (Meso Scale Discovery assay); settings: 10 ng/mL rHuTNF, 3 h (Table 9C)
[16] = test system: NFKB activity in PANC-1 cells; assay: TNF-induced NFKB activity (NFKB-dependent luciferase reporter); settings: 10 ng/ml rHuTNF, PANC-1 reporter cells (Table 9C)
[17] = read-out: Kinase: IC50 (nM) SIK2
[18] = MDCK-MDR1, MDCK-MDR1 cells, Mean Efflux Ratio (MDR1)
[19] = MDCK-MDR1, P-gP driven efflux ratio (MDR1/wt)
[20] = Free plasma concentration after 6 h (nM), mice, 30 mg/kg po, 6 h
[21] = Plasma concentration after 6 h (nM), mice, 30 mg/kg po, 6 h

SMILES: Cc1nc(Nc2ncc(C(=O)Nc3c(CF)csc3Cl)s2)cc(N2CCN(C)C(C)C2)n1 (single isomer, unassigned) [Compound E10-Ent-II, N-(2-chloro-4-(fluoromethyl)thiophen-3-yl)-2-((6-(3,4-dimethylpiperazin-1-yl)-2-methylpyrimidin-4-yl)amino)thiazole-5-carboxamide]
IC50 against SIK3 relative to IC50 of E10-Ent-I (SIK3 [1]; separated enantiomers): approximately half

SMILES: Cc1nc(Nc2ncc(C(=O)Nc3c(Cl)csc3C)s2)cc(N2CCN(CCO)CC2)n1 [Compound D1]
Free concentration (nM) at 2 hours [2]: 80 nM
Free concentration (nM) at 6 hours [2]: 4 nM
Free concentration (nM) at 12 hours [2]: 2.14 nM
IC50 [3]: < 200 nM

IC50 (SIK2): 20 to 50 nM
IC50 (SIK3 [1]): 50 to 100 nM
SMILES: Cc1nc(Nc2ncc(C(=O)Nc3c(C(F)(F)F)csc3Cl)s2)cc(N2CCN(CCO)CC2)n1 [Compound E5, N-(2-chloro-4-(trifluoromethyl)thiophen-3-yl)-2-((6-(4-(2-hydroxyethyl)piperazin-1-yl)-2-methylpyrimidin-4-yl)amino)thiazole-5-carboxamide]

SMILES: Cc1nc(Nc2ncc(C(=O)Nc3cccnc3C)s2)cc(N2CCN(CCO)CC2)n1 [Compound C6, 2-((6-(4-(2-hydroxyethyl)piperazin-1-yl)-2-methylpyrimidin-4-yl)amino)-N-(2-methylpyridin-3-yl)thiazole-5-carboxamide]
IC50 (SRC (GST-HIS-tag)): < 0.0015 µM
IC50 (SIK3 [4]): 0.987 µM

half-life [5]: 34 min
microsomal CLint [5]: 41 µL/min/mg
half-life [6]: 63 min
microsomal CLint [6]: 22 µL/min/mg
half-life (in vitro [7]): 16 min
microsomal CLint (in vitro [7]): 86 µL/min/mg
half-life (in vitro [8]): 18 min
microsomal CLint (in vitro [8]): 76 µL/min/mg
IC50 (SIK2; [17]): < 10 nM
IC50 (SIK3 [1]): 20 to 50 nM
Human plasma-protein binding, Percentage unbound (%) ([9]; Table 5.1A): 2%
recovery at 4 h [9]: 76%
Murine plasma protein binding, Percentage unbound (%) ([10]; Table 5.1A): 4%
recovery at 4 h [10]: 89%
Papp (MDR1 (P-gp)): 2 ×10⁻⁶ cm/s
efflux ratio (MDR1 (P-gp); [18]): 53
efflux ratio (MDR1 (P-gp); [19]): 12
Papp [11]: 7 ×10⁻⁶ cm/s
efflux ratio [11]: 4.3
Cmax at 2 h [12]: 889 ng/mL
concentration at 6 h [12, 20]: 3.7 nM
concentration at 6 h [12, 21]: 73 nM
SMILES: Cc1nc(Nc2ncc(C(=O)Nc3c(CF)csc3Cl)s2)cc(N2CCN(CCO)CC2)n1 [Compound E3, N-(2-chloro-4-(fluoromethyl)thiophen-3-yl)-2-((6-(4-(2-hydroxyethyl)piperazin-1-yl)-2-methylpyrimidin-4-yl)amino)thiazole-5-carboxamide]

IC50 (SIK2; [17]): < 20 nM
IC50 (SIK3 [1]): 50 to 100 nM
SMILES: Cc1nc(Nc2ncc(C(=O)Nc3c(CF)csc3Cl)s2)cc(N2CCNC(=O)C2)n1 [Compound E12, N-(2-chloro-4-(fluoromethyl)thiophen-3-yl)-2-((2-methyl-6-(3-oxopiperazin-1-yl)pyrimidin-4-yl)amino)thiazole-5-carboxamide]

IC50 (SIK2; [17]): < 10 nM
IC50 (SIK3 [1]; read-out: Kinase: IC50 (nM) SIK3): < 20 nM
SMILES: Cc1nc(Nc2ncc(C(=O)Nc3c(C(F)F)csc3Cl)s2)cc(N2CCN(C)CC2)n1 [Compound E13, N-(2-chloro-4-(difluoromethyl)thiophen-3-yl)-2-((2-methyl-6-(4-methylpiperazin-1-yl)pyrimidin-4-yl)amino)thiazole-5-carboxamide]

half-life [5]: 26 min
microsomal CLint [5]: 55 µL/min/mg
half-life [6]: 56 min
microsomal CLint [6]: 25 µL/min/mg
half-life (in vitro [7]): 19 min
microsomal CLint (in vitro [7]): 72 µL/min/mg
half-life (in vitro [8]): 21 min
microsomal CLint (in vitro [8]): 66 µL/min/mg
IC50 (SIK2; [17]): < 10 nM
IC50 (SIK3 [1]): 20 to 50 nM
Human plasma-protein binding, Percentage unbound (%) ([9]; Table 5.1A): 3%
recovery at 4 h [9]: 77%
Murine plasma protein binding, Percentage unbound (%) ([10]; Table 5.1A): 1%
recovery at 4 h [10]: 98%
Papp (MDR1 (P-gp)): 3 ×10⁻⁶ cm/s
efflux ratio (MDR1 (P-gp); [18]): 61
efflux ratio (MDR1 (P-gp); [19]): 24
Papp [11]: 8 ×10⁻⁶ cm/s
efflux ratio [11]: 2.6
fold improvement of free serum concentration over C7 ([12]; mice, 30 mg/kg po, 6 h): 2 fold
fold improvement of total serum concentration over C7 ([12]; mice, 30 mg/kg po, 6 h): 3.1 fold
Cmax at 2 h [12]: 487 ng/mL
concentration at 6 h [12, 20]: 7.7 nM
concentration at 6 h [12, 21]: 219 nM
SMILES: Cc1nc(Nc2ncc(C(=O)Nc3c(CF)csc3Cl)s2)cc(N2CCCN(C)CC2)n1 [Compound E11, N-(2-chloro-4-(fluoromethyl)thiophen-3-yl)-2-((2-methyl-6-(4-methyl-1,4-diazepan-1-yl)pyrimidin-4-yl)amino)thiazole-5-carboxamide]

IC50 (SIK2; [17]): < 10 nM
IC50 (SIK3 [1]): 50 to 100 nM
SMILES: Cc1nc(Nc2ncc(C(=O)Nc3c(Cl)csc3F)s2)cc(N2CCN(CCO)CC2)n1 [Compound E2, N-(4-chloro-2-fluorothiophen-3-yl)-2-((6-(4-(2-hydroxyethyl)piperazin-1-yl)-2-methylpyrimidin-4-yl)amino)thiazole-5-carboxamide]

SMILES: Cc1nc(Nc2ncc(C(=O)Nc3c(C)cncc3C)s2)cc(N2CCN(CCO)CC2)n1 [Compound C5, N-(3,5-dimethylpyridin-4-yl)-2-((6-(4-(2-hydroxyethyl)piperazin-1-yl)-2-methylpyrimidin-4-yl)amino)thiazole-5-carboxamide]
IC50 (SRC (GST-HIS-tag)): < 0.0015 µM
IC50 (SIK3 [4]): 0.34 µM

SMILES: Cc1nc(Nc2ncc(C(=O)Nc3c(Cl)csc3Cl)s2)cc(N2CCN(CCO)CC2)n1 [Compound D7]
Free concentration (nM) at 2 hours [2]: 43 nM
Free concentration (nM) at 6 hours [2]: 5 nM
Free concentration (nM) at 12 hours [2]: 1.10 nM

SMILES: Cc1nc(NCCO)cc(Nc2ncc(C(=O)Nc3c(Cl)ccnc3C)s2)n1 [Compound C11, N-(4-chloro-2-methylpyridin-3-yl)-2-((6-((2-hydroxyethyl)amino)-2-methylpyrimidin-4-yl)amino)thiazole-5-carboxamide]
IC50 (SRC (GST-HIS-tag)): < 0.0015 µM
IC50 (SIK3 [4]): 1.51 µM

IC50 (SIK2; [17]): < 20 nM
IC50 (SIK3 [1]): 20 to 50 nM
SMILES: Cc1nc(Nc2ncc(C(=O)Nc3c(Cl)csc3F)s2)cc(N2CCN(C)CC2)n1 [Compound E15, N-(4-chloro-2-fluorothiophen-3-yl)-2-((2-methyl-6-(4-methylpiperazin-1-yl)pyrimidin-4-yl)amino)thiazole-5-carboxamide]

SMILES: Cc1nc(Nc2ncc(C(=O)Nc3c(C)cncc3Cl)s2)cc(N2CCN(CCO)CC2)n1 [Compound C4, N-(3-chloro-5-methylpyridin-4-yl)-2-((6-(4-(2-hydroxyethyl)piperazin-1-yl)-2-methylpyrimidin-4-yl)amino)thiazole-5-carboxamide]
IC50 (SRC (GST-HIS-tag)): < 0.0015 µM
IC50 (SIK3 [4]): 0.677 µM
Human liver microsomal stability, Intrinsic clearance [13]: 115 µL/min/mg
Mouse liver microsomal stability, Intrinsic clearance (L/min/mg) [14]: 38 µL/min/mg
half-life (in vitro [7]): 12 min
half-life (in vitro [8]): 37 min
Human plasma-protein binding, Percentage unbound (%) ([9]; Table 5A): 2%
Murine plasma protein binding, Percentage unbound (%) ([10]; Table 5A): 14%

SMILES: Cc1nc(Nc2ncc(C(=O)Nc3c(C)csc3Cl)s2)cc(N2CCN(C)CC2)n1 [Compound D9]
IC50 (SIK3 [4]): ~0.06 µM
Free concentration (nM) at 2 hours [2]: 44 nM
Free concentration (nM) at 6 hours [2]: 8 nM
Free concentration (nM) at 12 hours [2]: 2.71 nM
Inhibition of HDAC4 phosphorylation [15]: +
Inhibition of NFKB activity [16]: +

SMILES: CC(=O)N1CCN(c2cc(Nc3ncc(C(=O)Nc4c(C)csc4Cl)s3)nc(C)n2)CC1 [Compound D8]
IC50 (SIK3 [4]): ~0.15 µM

SMILES: Cc1nc(Nc2ncc(C(=O)Nc3c(Br)ccnc3C)s2)cc(N2CCN(CCO)CC2)n1 [Compound C3, N-(4-bromo-2-methylpyridin-3-yl)-2-((6-(4-(2-hydroxyethyl)piperazin-1-yl)-2-methylpyrimidin-4-yl)amino)thiazole-5-carboxamide]
IC50 (SIK3 [4]): 2.78 µM

SMILES: Cc1nc(Nc2ncc(C(=O)Nc3c(C)ccnc3C)s2)cc(N2CCN(CCO)CC2)n1 [Compound C1, N-(2,4-dimethylpyridin-3-yl)-2-((6-(4-(2-hydroxyethyl)piperazin-1-yl)-2-methylpyrimidin-4-yl)amino)thiazole-5-carboxamide]
IC50 (SRC (GST-HIS-tag)): < 0.0015 µM
IC50 (SIK3 [4]): 0.867 µM

Source: US20230348453A1, “HALOGENATED-HETEROARYL AND OTHER HETEROCYCLIC KINASE INHIBITORS, AND USES THEREOF” (iOmx Therapeutics AG, priority 2020, published 2023)
